Here are results for 6 compounds from BindingDB's records for doi:10.1016/0960-894X(96)00211-9 (1996).

Molecules are shown by their SMILES. Structures can show the parent of a compound that is named as a salt.

The first assay can be described thus: Compound was tested for inhibitory activity against Endothelin-converting enzyme isolated from guinea pig lung membrane.
The IC50 is the concentration needed to halve the response being measured. Low values mean higher potency, high ones lower potency. `CC(C)CC(CP(O)(O)=C(Cc1ccc2ccccc2c1)NC(=O)OCc1ccccc1)C(=O)N[C@@H](Cc1c[nH]c2ccccc12)C(=O)O` (stereo partly drawn) [(S)-2-{2-[(1-Benzyloxycarbonylamino-2-naphthalen-2-yl-ethyl)-hydroxy-phosphinoylmethyl]-4-methyl-pentanoylamino}-3-(1H-indol-3-yl)-propionic acid; Disodium salt]: 3300 nM corresponded to half-maximal inhibition (IC50).

The nature of another assay: Inhibition of Endothelin-converting enzyme of guinea pig lung membrane.
Compound `CC(C)CC(CP(O)(O)=C(Cc1ccccc1)NC(=O)[C@H](CC(C)C)NC(=O)OCc1ccccc1)C(=O)N[C@@H](Cc1c[nH]c2ccccc12)C(=O)O` (stereo partly drawn) [(S)-2-(2-{[1-((S)-2-Benzyloxycarbonylamino-4-methyl-pentanoylamino)-2-phenyl-ethyl]-hydroxy-phosphinoylmethyl}-4-methyl-pentanoylamino)-3-(1H-indol-3-yl)-propionic acid; Disodium salt] gave an IC50 of 160 nM.
The same measure, in the same setting: as for `CC(C)CC(CP(O)(O)=C(Cc1ccc2ccccc2c1)NC(=O)[C@H](CCCCN)NS(C)(=O)=O)C(=O)N[C@@H](Cc1c[nH]c2ccccc12)C(=O)O` (stereo partly drawn) [(S)-2-(2-{[1-((S)-6-Amino-2-methanesulfonylamino-hexanoylamino)-2-naphthalen-2-yl-ethyl]-hydroxy-phosphinoylmethyl}-4-methyl-pentanoylamino)-3-(1H-indol-3-yl)-propionic acid; Disodium salt], the figure is 65 nM.
In the case of `CC(C)C(CP(O)(O)=C(Cc1ccc2ccccc2c1)NC(=O)[C@H](CCCCNC(=O)OCc1ccccc1)NS(C)(=O)=O)C(=O)N[C@@H](Cc1c[nH]c2ccccc12)C(=O)O` (stereo partly drawn) [(S)-2-(2-{[1-((S)-6-Benzyloxycarbonylamino-2-methanesulfonylamino-hexanoylamino)-2-naphthalen-2-yl-ethyl]-hydroxy-phosphinoylmethyl}-3-methyl-butyrylamino)-3-(1H-indol-3-yl)-propionic acid; Disodium salt], half-maximal inhibition (IC50) required 800 nM. This IC50 lies about 12-fold higher than the previous one.
Regarding `CC(C)C(CP(O)(O)=C(Cc1ccccc1)NC(=O)[C@H](CCCCNC(=O)OCc1ccccc1)NS(C)(=O)=O)C(=O)N[C@@H](Cc1c[nH]c2ccccc12)C(=O)O` (stereo partly drawn) [(S)-2-(2-{[1-((S)-6-Benzyloxycarbonylamino-2-methanesulfonylamino-hexanoylamino)-2-phenyl-ethyl]-hydroxy-phosphinoylmethyl}-3-methyl-butyrylamino)-3-(1H-indol-3-yl)-propionic acid; Disodium salt], 390 nM corresponded to half-maximal inhibition (IC50). This IC50 is about 2.1-fold lower than that of the compound before.
`CC(C)CC(NC(=O)[C@H](CCCCNC(=O)OCc1ccccc1)NS(C)(=O)=O)=P(O)(O)CC(CC(C)C)C(=O)N[C@@H](Cc1c[nH]c2ccccc12)C(=O)O` (stereo partly drawn) [(S)-2-(2-{[1-((S)-6-Benzyloxycarbonylamino-2-methanesulfonylamino-hexanoylamino)-3-methyl-butyl]-hydroxy-phosphinoylmethyl}-4-methyl-pentanoylamino)-3-(1H-indol-3-yl)-propionic acid; Disodium salt] registered an IC50 of 40 nM.
